Values of other authors as cited in patent publication US7279279B2, “Compositions and methods for determining anti-viral drug susceptibility and resistance and anti-viral drug screening” (Monogram Biosciences, Inc., priority 1996, dated 2007).

System: HIV
Conditions: background statement on drug treatment of HIV; no test conditions given

## Cc1cn([C@H]2C[C@H](N=[N+]=[N-])[C@@H](CO)O2)c(=O)[nH]c1=O [AZT, zidovudine]
  reduce virus replication: about 90%
